{"source": "patent US12415926B2", "about": "“Small tunable fluorophores for the detection and imaging of biomolecules” (The University Court of the University of Edinburgh, priority 2019, dated 2025)", "key": {"Neutrophils": {"tested_on": "Neutrophils", "assay": "Uptake of lactic acid analogue in live cells by flow cytometry (hypoxia/normoxia, lactate competition)", "assay_type": "cell-based, human", "experimental": "(§1) B) Fluorescence emission of live cells after incubation with compound SCOTfluor-84 (100 μM) at different oxygen tensions (normoxia: blue; hypoxia: red) and in normoxic cells after competition with lactic acid (no lactate: red; 5 mM lactate: blue). Values as means and s.e.m as error bars. C) Time-lapse TIRF tracking of fluorescent particles in untreated (top) and DMOG-treated (10 μM, bottom) HeLa cells after incubation with compound SCOTfluor-84 (100 μM). Scale bars: 1 μm. D) Histograms of the diffusion coefficients of fluorescent particles in normoxic (blue) and hypoxic (red) cells. Dotted lines delineate fast and slow diffusion species. Mean diffusion coefficients (D) were determined after averaging the tracks of multiple particles for each condition (n=1,009 for untreated; n=2,906 for DMOG-treated).\nEx vivo experiments with fresh human peripheral blood from healthy donors were approved by the Accredited Medical Regional Ethics Committee (AMREC, reference number 15-HV-013). Peripheral blood polymorphonuclear cells from healthy volunteers were isolated as previously described. Briefly, citrated blood (3.8%) was centrifuged at room temperature at 350 g for 20 min, platelet-rich plasma was removed and separation from erythrocytes was achieved by Dextran sedimentation and fractionation of leukocytes using isotonic Percoll gradient. […] Flow cytometry data were analyzed using FlowJo software. […]"}, "[1]": {"assay": "Optical properties of SCOTfluors (absorbance, emission, extinction coefficient, quantum yield, solvatochromism)", "assay_type": "physicochemical", "experimental": "All compounds were dissolved in different organic solvents, including toluene, chloroform, tetrahydrofuran, ethanol, DMSO and water (final concentrations: 10-50 μM). Fluorescence spectra were acquired on a spectrophotometer upon excitation at their maxima absorbance wavelengths.\nThe optical properties of SCOTfluor-80, 79, 78, 76 and 81 were compared with the properties of the original NBD."}, "HeLa cells [2]": {"tested_on": "HeLa cells", "assay": "Cytotoxicity assay in HeLa cells", "conditions": "100 μM and 75 μM (1% DMSO), 4 h at 37° C.", "description": "Cell viabilities were normalized to incubation in cell culture media under the same experimental conditions. A solution of 40% DMSO in cell culture media was used as a known cytotoxic positive control. Values represented as means±s.e.m. (n=3)."}, "HeLa cells [3]": {"tested_on": "HeLa cells", "assay": "TIRF single-particle tracking of intracellular diffusion", "assay_type": "cell-based, human", "conditions": "DMOG-treated (10 μM) vs untreated, 100 μM", "experimental": "as §1\nImaging was performed using a home-built, bespoke single-molecule total internal reflection fluorescence (TIRF) microscope. […] Fluorescence collected by the same objective was separated from the returning TIR beam by a dichroic mirror DI02-R514 (Semrock) for 515 nm and was passed through appropriate filters [515 nm: BLP01-561R, FF01-607/36 (Semrock)]. Fluorescence was then passed through a 2.5× beam expander and recorded on an EMCCD camera (Delta Evolve 512, Photometrics) operating in frame transfer mode (EMGain=11.5 e^−/ADU and 250 ADU/photon). […]"}}, "data": [{"smiles": "O=C(O)[C@H](O)CNc1ccc([N+](=O)[O-])c2n[se]nc12", "note": "[SCOTfluor-84, (R)-2-hydroxy-3-((7-nitrobenzo[c][1,2,5]selenadiazol-4-yl)amino)propanoic acid]", "values": [{"measurement": "uptake in hypoxic vs normoxic cells", "setting": "Neutrophils; hypoxic (1% O2) vs normoxic (20% O2), 100 μM", "value": "Increased uptake"}, {"measurement": "fluorescence staining under competition with excess lactic acid", "setting": "Neutrophils; normoxic cells, 5 mM lactic acid", "value": "markedly reduced"}, {"measurement": "emission", "setting": "[1]", "value": "~605", "unit": "nm"}, {"measurement": "cytotoxicity (cell viability)", "setting": "HeLa cells [2]", "value": "no significant cytotoxicity"}, {"measurement": "mean diffusion coefficients of fluorescent particles, hypoxic vs normoxic cells", "setting": "HeLa cells [3]", "value": "higher mean diffusion coefficients"}]}]}
